Reference: ChEMBL document CHEMBL4261616, “Discovery of heterocyclic replacements for the coumarin core of anti-tubercular FadD32 inhibitors” (Bioorg Med Chem Lett, 2018)
Converted amounts (≈) assume the structure as drawn.

Tested on: Mycobacterium tuberculosis
Assay: Antimycobacterial activity against Mycobacterium tuberculosis H37Rv harboring FadD32 mutant after 6 days by resazurin dye based fluorescence assay
Assay type: functional

Work on `CNC(=O)c1cc(-c2ccccc2Cl)c2c(C)c(-c3ccncc3)c(C)cc2n1` yielded an MIC90 of 6.25 µM (≈ 2.51 µg/mL).
Molecule `Cc1cc2nccc(-c3ccccc3)c2c(C)c1-c1ccc(CN2CCOCC2)cc1` has an MIC90 of 15.6 µM (≈ 6.37 µg/mL).
